Values joined by “and” are separate entries in the source; they are usually repeats but may differ in a detail not shown here. Equal entries are not always repeated. Where two headings read alike, the source gives them in different places.
How the values were obtained:
[1] = test system: Marburg virus/H.sapiens-tc/KEN/1980/Mt. Elgon-Musoke (MARV/Mus); experiment: organism not typed; type: cell-based; details: HeLa
[2] = test system: Ebola virus/H.sapiens-tc/COD/1995/Kikwit-9510621 (EBOV/Kik); experiment: microbe, parasite or virus in culture; type: cell-based; details: Zaire ebolavirus, HeLa
[3] = human, microsomes
in vitro [4] = details: human
EBOV Zaire = experiment: microbe, parasite or virus in culture; type: cell-based, Ebola virus; details: Zaire ebolavirus, HeLa
[5] = mouse, microsomes
[6] = human, microsomes, 1 h, pH 7.4
[7] = test system: Venezuelian equine encephalitis virus; experiment: microbe, parasite or virus in culture; type: cell-based; details: Venezuelan equine encephalitis virus, Vero 76
[8] = test system: Marburg virus/H.sapiens-tc/AGO/2005/Ang-1379v (MARV/Ang); experiment: organism not typed; type: cell-based; details: HeLa
SARS-CoV-2 Spike RBD = SARS-CoV-2 Spike RBD (Severe acute respiratory syndrome coronavirus 2, UniProt P0DTC2); type: binding
Ebola virus = experiment: microbe, parasite or virus in culture; type: cell-based; details: Zaire ebolavirus, Vero 76
[9] = guinea pig, microsomes
[10] = microsomes; for t1/2: monkey
SARS-CoV-2 = experiment: microbe, parasite or virus in culture; type: cell-based
Chikungunya virus = experiment: microbe, parasite or virus in culture; type: cell-based; details: Vero 76
HeLa cells = details: human
[11] = guinea pig, pH 7.4
[12] = test system: Ebola virus/H.sapiens-tc/COD/1976/Yambuku-Mayinga (EBOV/May); experiment: microbe, parasite or virus in culture; type: cell-based; details: Zaire ebolavirus, HeLa
[13] = test system: Vesicular Stomatitis Virus (VSV) pseudotyped with EBOV glycoprotein; experiment: microbe, parasite or virus in culture; type: cell-based, Ebola virus; details: HeLa, read-out: IC50, inhibition of EBOV-VSV pseudovirus entry
[14] = mouse, microsomes, 1 h, pH 7.4
[15] = test system: Ebola virus/H.sapiens-tc/GIN/2014/Makona-005 (EBOV/Mak); experiment: microbe, parasite or virus in culture; type: cell-based; details: Zaire ebolavirus, HeLa
[16] = test system: murine hepatitis virus (MHV); experiment: microbe, parasite or virus in culture; type: cell-based; details: Murine coronavirus, read-out: IC50 versus murine hepatitis virus (MHV)
in vitro [17] = details: African green monkey
[18] = test system: Marburg virus (MARV), Musoke strain; experiment: organism not typed; type: cell-based; details: HeLa; n=6; read-out: IC50 ± SEM versus MARV Musoke strain
in vivo [19] = details: Hartley, guinea pig, po; for AUC(0-t): AUClast Mean; for Cmax: Cmax Mean; for half-life: T1/2
in vivo [20] = details: both, Hartley, guinea pig, po
Poliovirus 3 = experiment: microbe, parasite or virus in culture; type: cell-based; details: Enterovirus C, Vero 76
Yellow Fever virus = experiment: microbe, parasite or virus in culture; type: cell-based; details: Vero 76
in vitro [21] = details: dog
Vero 76 = details: African green monkey
MERS coronavirus = experiment: microbe, parasite or virus in culture; type: cell-based; details: Middle East respiratory syndrome-related coronavirus, Vero 76
Influenza A virus H1N1 = experiment: microbe, parasite or virus in culture; type: cell-based; details: H1N1, MDCK
[22] = Hartley, guinea pig, in vivo, po, 30 mg/kg
Tacaribe virus = experiment: microbe, parasite or virus in culture; type: cell-based; details: Mammarenavirus tacaribeense, Vero 76
Hartley guinea pigs = details: guinea pig, in vivo
[23] = Severe acute respiratory syndrome coronavirus 2, A549-ACE2, read-out: IC50 against SARS-CoV-2
[24] = read-out: IC50 against SARS-CoV-2

Which results are given for `CCN(CC)CCCC(C)Nc1c2ccc(Cl)cc2nc2ccc(OC)cc12` (centres unmarked) [Quinacrine]?
IC50 [1]: 1570 ± 170 nM; IC50 [2]: 1410 ± 250 nM; Clint [3]: 50.5; Dextromethorphan: compound, t1/2 normalized to dextromethorphan control [3]: 1.4; t1/2 [3]: 0.458 h; CC50 (in vitro [4]): 6200 nM; EC50 (EBOV Zaire): 350 nM; Clint [5]: 110.0; Dextromethorphan: compound, t1/2 normalized to dextromethorphan control [5]: 0.8; t1/2 [5]: 0.21 h; Relative Peak Area/Abundance HLM [6]: 32.3%; EC50 [7]: 4000 nM; IC50 [8]: 2940 ± 760 nM; binding to SARS-CoV-2 Spike RBD (SARS-CoV-2 Spike RBD): did not demonstrate reproducible binding; EC50 (Ebola virus): > 12300 nM; Clint [9]: 81.3; Dextromethorphan: compound, t1/2 normalized to dextromethorphan control [9]: 5.4; t1/2 [9]: 0.285 h; Clint [10]: 137.4; Dextromethorphan: compound, t1/2 normalized to dextromethorphan control [10]: 1; t1/2 [10]: 0.168 h; IC50 (SARS-CoV-2; [23]): < 200 nM; IC50 (SARS-CoV-2; [24]): ~122 nM; EC50 (Chikungunya virus): 3200 nM; CC50 (HeLa cells): 8620 ± 20 nM; Relative Peak Area/Abundance GPLM [11]: 20.7%; IC50 [12]: 1480 ± 650 nM; IC50 [13]: 970 nM; Relative Peak Area/Abundance MLM [14]: 32.0%; IC50 [15]: 1050 ± 260 nM; IC50 [16]: 2300 nM; CC50 (in vitro [17]): 15000 nM; IC50 [18]: 775 ± 283 nM

For `CCN(CC)CCOc1ccc2c(c1)C(=O)c1cc(OCCN(CC)CC)ccc1-2` [Tilorone], which AUC(0-t) (in vivo [19]; female, 30 mg/kg) is on record?
Its AUC(0-t) is 1140 ng·h/mL.

What about the Cmax (in vivo [19]; female, 30 mg/kg) of the same compound?
Its Cmax is 246 ng/mL.

And the half-life (in vivo [19]; female, 30 mg/kg)?
Its half-life is 14.3 h.

And the Tmax (in vivo [19]; female, 30 mg/kg)?
The Tmax was 0.5 h.

And the AUC(0-t) (in vivo [19]; female, 100 mg/kg)?
The AUC(0-t) was 3330 ng·h/mL.

What about the Cmax (in vivo [19]; female, 100 mg/kg) of the same compound?
The Cmax was 384 ng/mL.

What about the half-life (in vivo [19]; female, 100 mg/kg) of the same compound?
The half-life was 17.4 h.

What about the Tmax (in vivo [19]; female, 100 mg/kg) of the same compound?
Its Tmax is 1 h.

And the AUC(0-t) (in vivo [19]; female, 200 mg/kg)?
Its AUC(0-t) is 4680 ng·h/mL.

What about the Cmax (in vivo [19]; female, 200 mg/kg) of the same compound?
Its Cmax is 448 ng/mL.

What about the Tmax (in vivo [19]; female, 200 mg/kg) of the same compound?
Its Tmax is 1 h.

And the AUC(0-t) (in vivo [19]; male, 30 mg/kg)?
The AUC(0-t) was 1020 ng·h/mL.

What about the Cmax (in vivo [19]; male, 30 mg/kg) of the same compound?
Its Cmax is 148 ng/mL.

And the half-life (in vivo [19]; male, 30 mg/kg)?
The half-life was 15.6 h.

And the Tmax (in vivo [19]; male, 30 mg/kg)?
The Tmax was 1 h.

What about the AUC(0-t) (in vivo [19]; male, 100 mg/kg) of the same compound?
The AUC(0-t) was 2690 ng·h/mL.

What about the Cmax (in vivo [19]; male, 100 mg/kg) of the same compound?
Its Cmax is 225 ng/mL.

And the Tmax (in vivo [19]; male, 100 mg/kg)?
The Tmax was 1 h.

And the AUC(0-t) (in vivo [19]; male, 200 mg/kg)?
Its AUC(0-t) is 5750 ng·h/mL.

What about the Cmax (in vivo [19]; male, 200 mg/kg) of the same compound?
Its Cmax is 355 ng/mL.

And the half-life (in vivo [19]; male, 200 mg/kg)?
Its half-life is 29 h.

What about the Tmax (in vivo [19]; male, 200 mg/kg) of the same compound?
Its Tmax is 1 h.

What about the MTD (in vivo [20]) of the same compound?
Its MTD is 30 mg/kg.

What about the IC50 [1] of the same compound?
The IC50 was 2050 ± 280 nM.

And the IC50 [2]?
The IC50 was 1480 ± 470 nM.

And the Clint [3]?
Its Clint is 10.9.

And the “Dextromethorphan: compound, t1/2 normalized to dextromethorphan control” value [3]?
Its value is 6.5.

And the t1/2 [3]?
Its t1/2 is 2.118 h.

What about the EC50 (Poliovirus 3) of the same compound?
Its EC50 is over 25000 nM.

And the CC50 (in vitro [4])?
Its CC50 is 6500 nM.

What about the EC50 (EBOV Zaire) of the same compound?
Its EC50 is 230 nM.

And the Clint [5]?
The Clint was 13.5.

And the “Dextromethorphan: compound, t1/2 normalized to dextromethorphan control” value [5]?
The value was 6.3.

What about the t1/2 [5] of the same compound?
Its t1/2 is 1.712 h.

What about the “Relative Peak Area/Abundance HLM” value [6] of the same compound?
Its value is 54.9%.

And the EC50 [7]?
Its EC50 is 18000 nM.

What about the IC50 [8] of the same compound?
The IC50 was 4510 ± 1930 nM.

What about the Kd (SARS-CoV-2 Spike RBD; pH5.2) of the same compound?
The Kd was 631 nM.

What about the Kd (SARS-CoV-2 Spike RBD; pH 7.4) of the same compound?
The Kd was 339 nM.

And the EC50 (Ebola virus)?
Its EC50 is over 11000 nM.

What about the Clint [9] of the same compound?
The Clint was 113.7.

And the “Dextromethorphan: compound, t1/2 normalized to dextromethorphan control” value [9]?
Its value is 3.9.

What about the t1/2 [9] of the same compound?
The t1/2 was 0.203 h.

What about the EC50 (Yellow Fever virus) of the same compound?
The EC50 was over 12000 nM.

And the Clint [10]?
Its Clint is 14.7.

And the “Dextromethorphan: compound, t1/2 normalized to dextromethorphan control” value [10]?
Its value is 16.9.

And the t1/2 [10]?
The t1/2 was 1.57 h.

And the IC50 (SARS-CoV-2; [23])?
The IC50 was under 200 nM.

What about the IC50 (SARS-CoV-2; [24]) of the same compound?
The IC50 was ~180 nM and 180 nM.

What about the EC50 (Chikungunya virus) of the same compound?
The EC50 was 4200 nM.

And the CC50 (HeLa cells)?
The CC50 was 18000 ± 3040 nM.

And the CC50 (in vitro [21])?
The CC50 was 19000 nM.

What about the CC50 (Vero 76) of the same compound?
Its CC50 is 32000 nM.

What about the “Relative Peak Area/Abundance GPLM” value [11] of the same compound?
Its value is 35.5%.

What about the IC50 [12] of the same compound?
The IC50 was 1210 ± 1070 nM.

And the IC50 [13]?
Its IC50 is 5000 nM.

And the “Relative Peak Area/Abundance MLM” value [14]?
Its value is 62.9%.

What about the EC50 (MERS coronavirus) of the same compound?
The EC50 was 3700 nM.

What about the IC50 [15] of the same compound?
The IC50 was 1140 ± 380 nM.

And the EC50 (Influenza A virus H1N1)?
Its EC50 is over 19000 nM.

And the “AUClast Mean” value ([22]; female)?
Its value is 1340 ng·h/mL.

What about the “AUClast Mean” value ([22]; male) of the same compound?
Its value is 1230 ng·h/mL.

What about the T1/2 ([22]; male) of the same compound?
The T1/2 was 13.3 h.

What about the IC50 [16] of the same compound?
Its IC50 is about 20000 nM.

And the EC50 (Tacaribe virus)?
The EC50 was 29000 nM.

What about the tolerability (Hartley guinea pigs) of the same compound?
Its tolerability is “relatively well tolerated”.

What about the mortality and morbidity (Hartley guinea pigs; po, 100 mg/kg) of the same compound?
Its mortality and morbidity is “significant mortality and morbidity”.

And the IC50 [18]?
The IC50 was 1940 ± 304 nM.
